According to article PMC11864979, “First-in-class ultralong-target-residence-time p38α inhibitors as a mitosis-targeted therapy for colorectal cancer” (Nature Cancer, 2025):
“And” between values parts separate entries of the source, which are not always exact repeats. Equal entries are not always repeated. Where two headings read alike, the source gives them in different places.

What was measured:
[1] = tested on: KAP organoids; experiment: cell viability in KAP organoids (CellTiter-Glo); format: cell-based, mouse; settings: for induction of cell death in KAP organoids (in words): viability assay
Description: For in vitro treatment studies, organoids were mechanically dissociated and digested using TrypLE supplemented with 100 µg ml^−1 DNaseI and 10.5 µM Y-27632 dihydrochloride (Invitrogen) at 37 °C. A total of 1,000–2,000 single cells were plated per well in white 96-well plates (Greiner) in culture medium containing 10% GFR Matrigel or Cultrex BME. The treatment with doxycycline (5 µg ml^−1), pharmacological inhibitors or corresponding volumes of DMSO was started 24 h after plating. Doxycycline was obtained from Sigma-Aldrich. […] Cell viability was measured by means of CellTiter-Glo 3D or CellTiter-Glo 2.0 reagent (Promega) according to the manufacturers’ instructions and the Infinite M Plex reader (Tecan, i-control version 3.9.1 software). Results were normalized to vehicle (DMSO) or to shNC. For cell-doubling assays, the cell number was quantified at the corresponding time points using Guava EasyCyte flow cytometer (Luminex, CytoSoft v5.2 software).

[2] = target: p38α (Homo sapiens, UniProt Q16539); experiment: p38α inhibition on isolated enzyme (ELISA, ATF2 substrate); format: biochemical; settings: Fig. 2d; replicates
Sequence of p38α (Q16539 whole entry): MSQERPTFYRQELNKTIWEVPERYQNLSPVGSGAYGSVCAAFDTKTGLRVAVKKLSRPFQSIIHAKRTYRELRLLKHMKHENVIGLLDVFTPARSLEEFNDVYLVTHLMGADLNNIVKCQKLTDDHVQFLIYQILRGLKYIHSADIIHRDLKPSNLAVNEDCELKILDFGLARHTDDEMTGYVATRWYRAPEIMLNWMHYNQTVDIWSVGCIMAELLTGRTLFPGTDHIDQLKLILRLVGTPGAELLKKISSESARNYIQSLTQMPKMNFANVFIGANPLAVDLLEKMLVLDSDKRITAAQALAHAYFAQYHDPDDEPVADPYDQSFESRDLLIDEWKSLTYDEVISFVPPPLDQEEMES
Description: For evaluating p38α inhibition on isolated enzyme, an ELISA assay was performed[57]. […] Compounds were dissolved in DMSO (10 mM) and diluted (0.01–10 µM) in a kinase buffer containing 12 ng per 50 µl p38α protein (provided by J. Schultz, University of Tübingen), 50 mM Tris pH 7.5, 10 mM MgCl2, 10 mM β-glycerophosphate, 100 µg ml^−1 BSA, 1 mM dithiothreitol, 0.1 mM Na3VO4 and 100 µM ATP. Then, 50 µl of each sample was pipetted into the corresponding wells and incubated for 1 h at 37 °C. […] Finally, 50 µl of TMB substrate (BD Bioscience) was added to the wells. After 5 min, the reaction was stopped by adding 25 µl of 1 N HCl and the samples were measured photometrically at 450 nm with an ELISA reader (Molecular Devices, FilterMax F5) using SOFTmax PRO software (version 6.5.1).

[3] = tested on: subcutaneous KAP CRCs; experiment: treatment of subcutaneous KAP tumors in wild-type mice; format: in vivo, mouse; settings: 6 d of treatment; single tumors; Fig. 5i
Description: Subcutaneous injection, splenic seeding or cecum injection of organoids was performed in 8–10-week-old C57BL/6 N/Crl, Rag2^−/− (B6.Cg-Rag2^tm1.1Cgn/J), or CB17 Scid beige (CB17.Cg-Prkdc^scidLyst^bg-J/Crl) mice, obtained from Charles River. The organoids were dissociated into single cells, washed with PBS and injected in a 1:1 mixture of PBS and Matrigel. For murine organoids, 1 × 10^5 cells were injected into the left and right flanks or the spleen capsule and 2 × 10^6 cells were injected into the cecum wall. For human organoids, 4 × 10^5 cells were injected into the flanks of CB17 Scid beige mice. For splenic seeding and cecum injection, mice were anaesthetized using ketamine (100 mg kg^−1, intraperitoneally) and xylazin (10 mg/kg, intraperitoneally) in NaCl and a small laparotomy below the thorax was performed.
No mice were excluded during treatment studies.

[4] = cell viability after 2015, Navitoclax or 2015 + Navitoclax (Fig. 5f); format: cell-based; set-up: concentration or dose not given beside the values; settings: replicates
[5] = Mus musculus, 24 h, read-out: Cell viability (%), Fig. 1d, replicates

Compound: Cc1ccc(-n2nc(C(C)(C)C)cc2NC(=O)Nc2ccc(OCCN3CCOCC3)c3ccccc23)cc1 [BIRB-796, reference compound]
- induction of cell death in KAP organoids (in words) [1]: failed to inhibit p38α downstream signaling and induce cell death

Compound: CC(C)(C)Cn1c(N)nc2ccc(-c3[nH]c(C(C)(C)C)nc3-c3ccc(F)cc3)nc21 [LY222820]
- IC50 [2]: 7.81 nM and 4.31 nM and 10.9 nM

Compound: CC(C)(C)Cn1c(N)nc2ccc(-c3[nH]c(C(C)(C)C)nc3-c3ccc(F)cc3)nc21 [LY2228820, ralimetinib, reference compound]
- viability at 5 µM ([1]; Mus musculus, 24 h, read-out: Cell viability (%), Fig. 1d, 5 µM, replicates): 93.3%
- viability at 10 µM [1, 5]: 77.8%
- induction of cell death in KAP organoids (in words) [1]: only a very weak induction of cell death

Compound: CNC(=O)c1ccc(C)c(-n2c(C)cc(OCc3ccc(F)cc3F)c(Br)c2=O)c1 [PH797804]
- viability at 1 µM ([1]; Mus musculus, 24 h, read-out: Cell viability (%), Fig. 1d, 1 µM, replicates): 92.1%
- viability at 10 µM [1, 5]: 84.1%
- viability at 1 µM ([1]; Mus musculus, read-out: Cell viability (% of DMSO), drug screen in KAP organoids, 1 µM concentration, n = 3, mean): 86.2%

Compound: CNC(=O)c1ccc(C)c(-n2c(C)cc(OCc3ccc(F)cc3F)c(Br)c2=O)c1 [PH-797804, reference compound]
- induction of cell death in KAP organoids (in words) [1]: only a very weak induction of cell death

Compound: CC1(C)CCC(c2ccc(Cl)cc2)=C(CN2CCN(c3ccc(C(=O)NS(=O)(=O)c4ccc(N[C@H](CCN5CCOCC5)CSc5ccccc5)c(S(=O)(=O)C(F)(F)F)c4)cc3)CC2)C1 [navitoclax, reference compound]
- Tumor volume [3]: 87.5 mm³ and 126.0 mm³ and 144.0 mm³ and 112.5 mm³ and 100.0 mm³
- Cell viability [4]: 100.49% and 78.37% and 85.69%
- induction of cell death in KAP organoids (in words) [1]: no therapeutic response
